# Legend:
# [1] = Solubility in PBS solution (pH 7.4) at room temperature; assay type: physicochemical; conditions: PBS solution (pH 7.4), aqueous buffer, kinetic from dmso stock; PBS pH 7.4, room temperature, 24 hours shaking, 1% DMSO, average of two measurements; read-out: Solubility in PBS pH7.4
# Method: Test Example 1. Solubility of the Compound of the Present Disclosure in PBS Solution (pH 7.4) at Room Temperature
# 2.1 Formulation of the PBS solution (pH 7.4): 0.57 g of NaH2PO42.H2O, 5.55 g of Na2HPO4.12H2O and 6.48 g of NaCl were weighed, followed by the addition of ultra-pure water. The pH was adjusted to 7.4±0.05 with 1 M NaOH or 1 M HCl. Water was added until the volume reached 1 L. The PBS solution was stored in a refrigerator at 4° C. (the storage life was 6 months).
# 2.2 Formulation of the solution of the compound in PBS 7.4: An appropriate amount of the test compound was weighed, and dissolved in DMSO or a mixed solution of DMSO:acetonitrile:ethanol (1:1:1) to obtain a 10 mM stock solution of the test compound. 10 μL of the stock solution of the test compound and 990 μL of the PBS solution (pH 7.4) were precisely measured and placed in a 2 mL sample vial and mixed well, and the DMSO concentration of the final solution was 1% (v/v). This solution was formulated in duplicate, shaken on a plate bed at room temperature for 24 hours, and centrifuged at 5000 rpm for 20 minutes. The supernatant was analyzed by the liquid chromatograph.
# 2.3 Formulation of the reference solution: 10 μL of the stock solution of the test sample (concentration: 10 mM, dissolved in DMSO) and 990 μL of an organic mixed solvent (usually DMSO:acetonitrile:ethanol=1:1:1) were precisely measured and placed in a 2 mL sample vial, and mixed well to obtain a clear 100 μM sample solution. The solution was filtered through a 0.45 μm organic phase microporous filter membrane, and the filtrate was analyzed by the liquid chromatograph.
# Solubility (μM)=peak area of the sample/peak area of the reference*concentration of the reference (μM)*sample solution dilution factor
# The average of two measurements was used as the final solubility.
# NaV1.8 ion channel = target: T1, NaV1.8 ion channel (Homo sapiens, UniProt Q9Y5Y9); test: Manual patch clamp, inhibitory activity on NaV1.8 stably expressed on HEK293 cells; assay type: cell-based; conditions: HEK293 cells stably expressing NaV1.8, manual patch clamp, resting protocol (clamped at -80 mV, depolarized to 10 mV), 1 μM TTX; read-out: IC50 on inhibiting the Nav1.8 channel activity
# T1 construct: expressed in transfected cells
# Source text: Test Example 3. Determination of the Inhibitory Activity of the Compounds of the Present Disclosure on NaV1.8
# The purpose of the experiment is to investigate the effect of the compounds on NaV1.8 ion channel in an in vitro experiment, wherein the NaV1.8 ion channel is stably expressed on HEK293 cells. After the NaV1.8 current becomes stable, the NaV1.8 currents before and after the administration of the compound are compared so as to obtain the effect of the compound on the NaV1.8 ion channel.
# Except for NaOH and KOH used for acid titration and base titration, all the compounds used for formulating the extracellular fluid and intracellular fluid were purchased from Sigma (St. Louis, Mo.). Extracellular fluid (mM): NaCl, 137; KCl, 4; CaCl2, 1.8; MgCl2, 1; HEPES, 10; glucose, 10; pH 7.4 (NaOH titration). Intracellular fluid (mM): aspartic acid, 140; MgCl2, 2; EGTA, 11; HEPES, 10; pH 7.2 (CsOH titration). All solutions of test compound and control compound contained 1 μM TTX.
# The test compound was dissolved in dimethyl sulfoxide (DMSO) at a stock concentration of 9 mM. The stock solution of the test compound was dissolved in the extracellular fluid on the day of the test and formulated into the required concentration.
# 1) The compound was formulated into solutions with specified concentrations, the solutions were added to the pipelines respectively in order from low to high concentration, and the pipelines were marked.
# 2) The cell was transferred to the perfusion tank. A positive pressure was applied to the electrode. The tip of the electrode touched the cell. The three-way valve of the air extracting device was adjusted to a three-way state. […]
# The cell was clamped at −80 mV. […] The maximum current caused by the square wave was measured. […] After the response became stable, the blocking intensity was calculated. […]
# The inhibitory activity of the compounds of the present disclosure on NaV1.8 was determined by the above test, and the resulting IC50 values are shown in Table 3.
# [2] = Pharmacokinetics assay in SD rats after intragastric administration, plasma LC/MS/MS; assay type: in vivo
# Method: Test Example 2. Pharmacokinetics Assay of the Compounds of the Present Disclosure in Rats
# SD rats were used as test animals. The drug concentration in plasma at different time points was determined by LC/MS/MS method after oral administration of the compounds of Example 2, Example 6 and Example 7 to SD rats. The pharmacokinetic behavior of the compounds of the present disclosure was studied and evaluated in SD rats.
# Forty SD rats (half male and half female, equally divided into ten groups) were purchased from Shanghai Jiesijie Laboratory Animal Co., LTD. (Certificate No.: SCXK(Shanghai) 2013-0006).
# An appropriate amount of the compound of Example 2 was weighed, followed by the addition of 5% of DMSO, 5% of tween 80 and 90% of normal saline successively to obtain a colorless, clear and transparent solution.
# An appropriate amount of the compound of Example 2 was weighed, followed by the addition of 0.5% sodium carboxymethyl cellulose (containing 0.5% tween 80) to obtain a white homogeneous suspension.
# An appropriate amount of the compound of Example 6 was weighed, and added to 200 mM (5% PVPK30+5% TPGS) Na2HPO4 solution (pH=9) to obtain a homogeneous suspension.
# An appropriate amount of the compound of Example 7 was weighed, and added to 200 mM (5% PVPK30+5% TPGS) Na2HPO4 solution (pH=9) to obtain a homogeneous suspension.
# After an overnight fast, the SD rats were intragastrically administered the test compounds. Regarding to the compound of Example 2 (formulation: 5% of DMSO, 5% of tween 80 and 90% of normal saline), the administration dose was 2 mg/kg, the administration volume was 10 mL/kg, and the administration concentration was 0.2 mg/mL. Regarding to the compound of Example 2 (formulation: 0.5% sodium carboxymethyl cellulose (containing 0.5% tween 80)), the administration dose was 10, 30, 100 mg/kg, the administration volume was 10 mL/kg, and the administration concentration was 1, 3, 10 mg/mL. Regarding to the compound of Example 6, the administration dose was 100, 300, 900 mg/kg, the administration volume was 10 mL/kg, and the administration concentration was 10, 30, 90 mg/mL. Regarding to the compound of Example 7, the administration dose was 10, 30, 100 mg/kg, the administration volume was 10 mL/kg, and the administration concentration was 1, 3, 10 mg/mL.
# After an overnight fast, the SD rats were intragastrically administered the test compounds. 0.2 ml of blood was taken from the orbit before the administration and at 0.5, 1.0, 2.0, 4.0, 6.0, 8.0, 11.0 and 24.0 hours after the administration. The samples were stored in heparinized tubes, and centrifuged for 10 minutes at 3500 rpm to separate the blood plasma. The plasma samples were stored at −20° C. The SD rats were fed 2 hours after the administration.
# The content of the test compound in the plasma of SD rats after administration of the test compound at different concentrations was determined: 25 μL of SD rat plasma at each time point after the administration was taken, followed by the addition of 50 μL of the internal standard camptothecin solution (100 ng/mL) and 200 μL of acetonitrile. The resulting solution was vortex-mixed for 5 minutes, and centrifuged for 10 minutes (3700 rpm). 3.0 μL of the supernatant was taken from the plasma samples of the compound of Example 2 (the group at the administration dose of 2 mg/kg) for LC/MS/MS analysis. 2.0 μL of the supernatant was taken from the plasma samples of the compound of Example 2 (the group at the administration dose of 10, 30, or 100 mg/kg) for LC/MS/MS analysis. 0.2 μL of the supernatant was taken from the plasma samples of the compound of Example 6 for LC/MS/MS analysis. 1 μL of the supernatant was taken from the plasma samples of the compound of Example 7 for LC/MS/MS analysis. […]
# T1 sequence (Q9Y5Y9 whole entry): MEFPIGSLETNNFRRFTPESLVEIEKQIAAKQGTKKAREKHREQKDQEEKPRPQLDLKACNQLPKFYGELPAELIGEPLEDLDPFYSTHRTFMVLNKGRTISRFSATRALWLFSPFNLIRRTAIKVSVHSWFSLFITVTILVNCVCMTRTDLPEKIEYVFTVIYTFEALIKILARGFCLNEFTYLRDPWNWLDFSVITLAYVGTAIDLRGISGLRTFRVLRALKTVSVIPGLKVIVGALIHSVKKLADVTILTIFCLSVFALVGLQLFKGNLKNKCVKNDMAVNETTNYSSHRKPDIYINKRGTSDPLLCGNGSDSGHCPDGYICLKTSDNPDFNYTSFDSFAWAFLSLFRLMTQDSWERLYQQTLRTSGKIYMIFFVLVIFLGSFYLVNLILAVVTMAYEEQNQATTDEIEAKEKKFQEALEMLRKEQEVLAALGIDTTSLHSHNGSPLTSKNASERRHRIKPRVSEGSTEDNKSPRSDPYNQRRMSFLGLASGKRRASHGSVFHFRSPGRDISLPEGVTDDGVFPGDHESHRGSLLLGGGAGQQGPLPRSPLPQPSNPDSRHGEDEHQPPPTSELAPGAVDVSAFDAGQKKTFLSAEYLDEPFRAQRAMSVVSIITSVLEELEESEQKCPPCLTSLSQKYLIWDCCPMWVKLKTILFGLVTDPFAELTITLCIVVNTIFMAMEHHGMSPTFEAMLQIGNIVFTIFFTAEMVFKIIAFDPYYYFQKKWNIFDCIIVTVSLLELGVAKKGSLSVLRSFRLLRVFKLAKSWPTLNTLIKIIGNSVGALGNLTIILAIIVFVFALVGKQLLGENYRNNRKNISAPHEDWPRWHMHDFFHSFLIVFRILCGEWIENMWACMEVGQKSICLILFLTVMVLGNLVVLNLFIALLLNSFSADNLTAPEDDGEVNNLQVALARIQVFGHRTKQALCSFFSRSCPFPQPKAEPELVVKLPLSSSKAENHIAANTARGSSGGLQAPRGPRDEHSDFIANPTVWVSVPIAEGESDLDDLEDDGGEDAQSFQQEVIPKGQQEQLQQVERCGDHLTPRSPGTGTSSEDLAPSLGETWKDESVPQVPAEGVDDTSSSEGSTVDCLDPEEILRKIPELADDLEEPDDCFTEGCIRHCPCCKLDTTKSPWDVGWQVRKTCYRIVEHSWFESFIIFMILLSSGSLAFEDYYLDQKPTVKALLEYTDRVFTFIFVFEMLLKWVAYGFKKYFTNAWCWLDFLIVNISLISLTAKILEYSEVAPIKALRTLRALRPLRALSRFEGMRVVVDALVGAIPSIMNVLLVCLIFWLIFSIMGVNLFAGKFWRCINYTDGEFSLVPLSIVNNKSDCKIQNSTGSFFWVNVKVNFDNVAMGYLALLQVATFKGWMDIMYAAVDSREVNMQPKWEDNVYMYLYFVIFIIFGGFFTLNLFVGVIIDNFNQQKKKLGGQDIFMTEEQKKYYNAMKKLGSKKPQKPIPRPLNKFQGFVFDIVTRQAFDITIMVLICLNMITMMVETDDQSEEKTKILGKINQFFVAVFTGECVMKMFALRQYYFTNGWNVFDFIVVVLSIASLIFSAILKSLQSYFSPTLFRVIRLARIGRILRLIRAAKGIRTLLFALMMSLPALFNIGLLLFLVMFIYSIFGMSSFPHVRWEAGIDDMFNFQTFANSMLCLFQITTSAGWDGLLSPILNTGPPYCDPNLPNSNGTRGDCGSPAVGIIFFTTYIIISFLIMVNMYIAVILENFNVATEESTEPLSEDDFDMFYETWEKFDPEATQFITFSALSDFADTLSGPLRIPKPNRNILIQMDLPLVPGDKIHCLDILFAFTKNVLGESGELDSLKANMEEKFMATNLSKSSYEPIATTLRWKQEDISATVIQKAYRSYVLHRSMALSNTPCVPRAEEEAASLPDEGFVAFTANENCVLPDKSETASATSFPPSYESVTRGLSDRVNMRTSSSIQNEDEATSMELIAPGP
smiles,measurement,setting,value
"COc1cc(F)ccc1Oc1cc(C(F)(F)F)c(Cl)cc1C(=O)Nc1cnn(COC(=O)CCC(=O)O)c(=O)c1 [Example 6, 4-((4-(5-Chloro-2-(4-fluoro-2-methoxyphenoxy)-4-(trifluoromethyl)benzamido)-6-oxopyridazin-1(6H)-yl)methoxy)-4-oxobutanoic acid]",solubility at 24 h,[1],44.9 µM
same,IC50,NaV1.8 ion channel,3.9 nM
same,Detection of the administered prodrug compound itself in rat plasma,"[2]; after intragastric administration, LC/MS/MS",not detected
same,In vivo conversion of the prodrug into its metabolite,[2]; intragastric administration,converted into compound 6c in vivo
